Data on 30 compounds can be found in patent US20250230138A1, “COMPOUNDS HAVING A T-STRUCTURE FORMED BY AT LEAST FOUR CYCLES FOR USE IN THE TREATMENT OF CANCER AND OTHER INDICATIONS” (TheRas, Inc., priority 2022, published 2025).

Read-outs that look alike come from different tables or passages of the source. Where only a bound is given, the exact number is not on record here.

Assay [1] deals with pAKT in BT474 cells. Put plainly: Cell-based pAKT HTRF assay in BT474 cells. Conditions: BT474 cells, 4 hr incubation, read-out: pAKT inhibition IC50 in BT474 cells. The method in brief:
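Compound titration: 3 μM downward in 3-fold steps, nine points, 4 hr on cells. Detection: lysis, then d2 plus Eu Cryptate antibody mix, room-temperature incubation of 4–24 h, and time-resolved fluorescence read at 615 nm.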
(In general: In TR-FRET formats the signal depends on donor and acceptor labels being close together.)

Assay [2] has as its target Cys242 in human PIK3CA (157-299) (Homo sapiens (Human), UniProt P42336). Put plainly: Covalent modification assay using MALDI-TOF MS. It is filed as biochemical. Conditions: 4 h reaction time point. Put shortly: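 Covalent adduct formation was read by linear-mode MALDI-TOF with sinapinic acid matrix, reported as modified-protein peak height divided by total protein peak heights. Reactions held PIK3CA (157-299) at 1 or 3.33 μM in HEPES/NaCl/MgCl2 buffer, pH 7.3, sampled after 15 min to 4 h at room temperature.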

Where [3] appears, read: 3.33 μM protein target, 1:7.5 protein to compound ratio (compounds 1-852).
The mark [4] stands for this setting: 1 μM protein target, 1:5 protein to compound ratio (compounds 853-1279).
The mark [5] stands for this setting: Homo sapiens, BT-474, Compounds 10-999.

Cys242 in human PIK3CA (157-299), sequence (P42336 157-299): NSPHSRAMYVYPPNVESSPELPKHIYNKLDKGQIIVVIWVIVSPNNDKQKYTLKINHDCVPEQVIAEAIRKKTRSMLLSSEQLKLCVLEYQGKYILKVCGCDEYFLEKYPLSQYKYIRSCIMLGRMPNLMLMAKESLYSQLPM

Consider `C=CC(=O)N1CCn2nc(-c3nc(-c4ccc5oc(C)nc5c4)c4ccsc4c3-c3c(F)cc(F)cc3OC[C@@H](C)O)cc2[C@@H]1C` [Compound 655], for which the IC50 in assay [1] (Compounds 10-999) is under 100 nM. The “% of modification” value in assay [2] (setting [3]) is recorded as “A (percent of modification of PIK3CA protein ≥75%)”.
In the case of `C=CC(=O)N1Cc2cc(-c3nc(-c4cnc5c(c4)CNC(=O)C5)c4ccsc4c3-c3c(F)cc(F)cc3OC(C)C)nn2CC1C` (stereo not drawn) [Compound 495], the IC50 in assay [1] (Compounds 10-999) was under 100 nM. In assay [2] (setting [3]), the “% of modification” value is listed as “A (percent of modification of PIK3CA protein ≥75%)”.
Take `C=CC(=O)N1CCn2nc(-c3nc(-c4ccc(=O)n(CC(F)F)c4)c4ccsc4c3-c3c(F)cc(F)cc3OCCOC)cc2C1C` (stereo not drawn) [Compound 988]: the IC50 in assay [1] (Compounds 10-999) is under 100 nM. Further, the “% of modification” value in assay [2] (setting [4]) is on record as “A (percent of modification of PIK3CA protein ≥75%)”.
Consider `C=CC(=O)N1CCc2cc(-c3nc(-c4ccc5c(c4)CCNC5=O)c4ccsc4c3-c3c(F)cc(F)cc3OCCO)nn2CC1` [Compound 1202], for which the IC50 in assay [1] (Compounds 1000-1279) was under 100 nM. In addition, in assay [2] (setting [4]), the “% of modification” value is “A (percent of modification of PIK3CA protein ≥75%)”.
Take `C=CC(=O)N1CCc2nc(-c3nc(-c4ccc5c(c4)CCNC5)c4ccsc4c3-c3c(F)cc(F)cc3OCCOC)sc2C1` [Compound 366]: in assay [1] (Compounds 10-999), the IC50 lay within 100 to 1000 nM. In assay [2] (setting [3]), the “% of modification” value is reported as “A (percent of modification of PIK3CA protein ≥75%)”.
As to `C=CC(=O)N1CCn2nc(-c3nc(-c4ccc5ncc(=O)n(C)c5c4)c4ccsc4c3-c3c(F)cc(F)cc3OCCO)cc2[C@H]1C` [Compound 979], in assay [1] (Compounds 10-999), the IC50 was under 100 nM. For the same compound, in assay [2] (setting [4]), the “% of modification” value is reported as “A (percent of modification of PIK3CA protein ≥75%)”.
On to `C=CC(=O)N1CC(n2cc(-c3nc(C4=CCC5(CC4)CNC5)c4ccsc4c3-c3ccc(F)cc3OCCOC)cn2)C1` [Compound 145], for which the half-inhibitory concentration (IC50) in assay [1] (Compounds 10-999) is 1000 to 3000 nM. In assay [2] (setting [3]), the “% of modification” value is “A (percent of modification of PIK3CA protein ≥75%)”.
For the compound `C=CC(=O)N1CCn2nc(-c3nc(-c4cnn(C)c4)c4ccsc4c3-c3ccc(F)cc3OCCOC)cc2C1` [Compound 194, 1-[2-[7-[4-fluoro-2-(2-methoxyethoxy)phenyl]-4-(1-methylpyrazol-4-yl)thieno[3,2-c]pyridin-6-yl]-6,7-dihydro-4H-pyrazolo[1,5-a]pyrazin-5-yl]prop-2-en-1-one], in assay [1] (setting [5]), the IC50 is under 100 nM. Also, in assay [2] (setting [3]), the “% of modification” value was “A (percent of modification of PIK3CA protein ≥75%)”.
Take `C=CC(=O)N1CCn2nc(-c3nc(-c4ccc5c(c4)CCN(C)C5=O)c4ccsc4c3-c3c(F)cc(F)cc3OCCOC)cc2[C@@H]1C` [Compound 974]: the concentration for half-maximal inhibition (IC50) in assay [1] (Compounds 10-999) was 100 to 1000 nM. Moreover, in assay [2] (setting [4]), the “% of modification” value is given as “D (percent of modification <25%)”.
As to `C=CC(=O)N1CC(n2cc(-c3nc(-c4ccc5c(c4)CNC5=O)c4ccsc4c3-c3ccc(F)cc3OC)cn2)C1` [Compound 282], the IC50 in assay [1] (Compounds 10-999) is under 100 nM. Besides, in assay [2] (setting [3]), the “% of modification” value is “A (percent of modification of PIK3CA protein ≥75%)”.
On to `C=CC(=O)N1CCn2nc(-c3nc(-c4ccc5c(c4)CN(C)C(=O)C5)c4ccsc4c3-c3c(F)cc(F)cc3OCCOC)cc2C1C` (stereo not drawn) [Compound 983], for which, in assay [1] (Compounds 10-999), the IC50 is under 100 nM. Also, the “% of modification” value in assay [2] (setting [4]) is reported as “A (percent of modification of PIK3CA protein ≥75%)”.
Consider `C=CC(=O)N1CCc2ncc(-c3nc(-c4ccc5c(c4)CCN(C)C5)c4ccsc4c3-c3c(F)cc(F)cc3OC)cc2C1` [Compound 425], for which the IC50 in assay [1] (Compounds 10-999) is under 100 nM. Further, the “% of modification” value in assay [2] (setting [3]) was “A (percent of modification of PIK3CA protein ≥75%)”.
Taken in the same sequence, the figures for `C=CC(=O)N1CCn2nc(-c3nc(-c4ccc5c(c4)CCN(C)C5)c4ccsc4c3-c3ccc(F)cc3OC)cc2C1` [Compound 265] were under 100 nM and “A (percent of modification of PIK3CA protein ≥75%)”.
For `C=CC(=O)N1CC(n2cc(-c3nc(N4CCC5(CC4)CNC(=O)C5)c4ccsc4c3-c3ccc(F)cc3OCCOC)cn2)C1` [Compound 150], in that order: 100 to 1000 nM and “A (percent of modification of PIK3CA protein ≥75%)”.
For `C=CC(=O)N1CCn2nc(-c3nc(-c4cnc5c(c4)CN(C)CC5)c4ccsc4c3-c3ccc(F)cc3OC(C)C)cc2C1` [Compound 283], in that order: under 100 nM and “A (percent of modification of PIK3CA protein ≥75%)”.
`C=CC(=O)N1Cc2cc(-c3nc(-c4ccc5c(c4)CCN(C)C5)c4ccsc4c3-c3c(F)cc(F)cc3OC(C)C)nn2C[C@H]1C` [Compound 479, 1-((R)-2-((S)-7-(2,4-difluoro-6-isopropoxyphenyl)-4-(2-methyl-1,2,3,4-tetrahydroisoquinolin-6-yl)thieno[3,2-c]pyridin-6-yl)-6-methyl-6,7-dihydropyrazolo[1,5-a]pyrazin-5(4H)-yl)prop-2-en-1-one]: the IC50 in assay [1] (Compounds 10-999) was under 100 nM. In assay [2] (setting [3]), the “% of modification” value is recorded as “A (percent of modification of PIK3CA protein ≥75%)”.
In the case of `C=CC(=O)N1CCn2nc(-c3nc(-c4ccc(=O)n(C)c4)nc(C)c3-c3ccc(F)cc3OC(C)C)cc2C1` [Compound 331, 5-[5-(4-fluoro-2-isopropoxy-phenyl)-4-methyl-6-(5-prop-2-enoyl-6,7-dihydro-4H-pyrazolo[1,5-a]pyrazin-2-yl)pyrimidin-2-yl]-1-methyl-pyridin-2-one], in assay [1] (setting [5]), the IC50 lay in the range of 1000 to 3000 nM. For the same compound, the “% of modification” value in assay [2] (setting [3]) is listed as “A (percent of modification of PIK3CA protein ≥75%)”.
Regarding `C=CC(=O)N1Cc2cc(-c3nc(-c4ccc5c(cnn5C)c4)c4ccsc4c3-c3c(F)cc(F)cc3OC[C@@H](C)O)nn2[C@@H](C)C1` [Compound 608], the IC50 in assay [1] (Compounds 10-999) was 100 to 1000 nM. Besides, in assay [2] (setting [3]), the “% of modification” value is reported as “D (percent of modification <25%)”.
In the case of `C=CC(=O)N1CCc2ncc(-c3nc(-c4ccc5c(c4)CCNC5)c4c(c3-c3ccc(F)cc3OC)CCC4)cc2C1` [Compound 89, 1-[3-[4-(4-fluoro-2-methoxy-phenyl)-1-(1,2,3,4-tetrahydroisoquinolin-6-yl)-6,7-dihydro-5H-cyclopenta[c]pyridin-3-yl]-7,8-dihydro-5H-1,6-naphthyridin-6-yl]prop-2-en-1-one], the IC50 in assay [1] (setting [5]) lay in the range of 100 to 1000 nM. The “% of modification” value in assay [2] (setting [3]) is “A (percent of modification of PIK3CA protein ≥75%)”.
For `C=CC(=O)N1Cc2cc(-c3nc(-c4cnn(C(C)C)c4)c4ccsc4c3-c3c(F)cc(F)cc3OCCO)nn2[C@@H](C)C1` [Compound 728], the IC50 in assay [1] (Compounds 10-999) lay within 100 to 1000 nM. For the same compound, in assay [2] (setting [3]), the “% of modification” value is reported as “D (percent of modification <25%)”.
As to `C=CC(=O)N1CCn2nc(-c3nc(-c4ccc(OC5CN(C)C5)cc4)c4ccsc4c3-c3c(F)cc(F)cc3OCCOC)cc2C1C` (stereo not drawn) [Compound 1094], in assay [1] (Compounds 1000-1279), the IC50 is under 100 nM. Also, in assay [2] (setting [4]), the “% of modification” value was “A (percent of modification of PIK3CA protein ≥75%)”.
Taken in the same sequence, the figures for `C=CC(=O)N1CCc2ccc(-c3nc(-c4ccc5c(c4)CNC(=O)C5)c4ccsc4c3-c3c(F)cc(F)cc3OCCOC)cc2C1` [Compound 1066] were 100 to 1000 nM and “D (percent of modification <25%)”.
For `C=CC(=O)N1CCn2nc(-c3nc(-c4cnn(C)c4)c(Cl)cc3-c3ccc(F)cc3OCCOC)cc2C1` [Compound 355, 1-[2-[5-chloro-3-[4-fluoro-2-(2-methoxyethoxy)phenyl]-6-(1-methylpyrazol-4-yl)-2-pyridyl]-6,7-dihydro-4H-pyrazolo[1,5-a]pyrazin-5-yl]prop-2-en-1-one], the IC50 in assay [1] (setting [5]) was over 3000 nM. Moreover, the “% of modification” value in assay [2] (setting [3]) was “A (percent of modification of PIK3CA protein ≥75%)”.
As to `C=CC(=O)N1Cc2cc(-c3nc(-c4ccc5c(c4)CS(=O)(=O)C5)c4ccsc4c3-c3c(F)cc(F)cc3OCCOC)nn2C[C@H]1C` [Compound 746], in assay [1] (Compounds 10-999), the 50% inhibitory concentration (IC50) was under 100 nM. Also, the “% of modification” value in assay [2] (setting [3]) is on record as “A (percent of modification of PIK3CA protein ≥75%)”.
Consider `C=CC(=O)N1Cc2cc(-c3nc(-c4ccc5ncn(C)c5c4)c4ccsc4c3-c3c(F)cc(F)cc3OCCOC)nn2C[C@H]1C` [Compound 689], for which, in assay [1] (Compounds 10-999), the IC50 is under 100 nM. In addition, the “% of modification” value in assay [2] (setting [3]) is “A (percent of modification of PIK3CA protein ≥75%)”.
Take `C=CC(=O)N1CCc2ccc(-c3nc(-c4cn(C)cn4)c4ccsc4c3-c3c(F)cc(F)cc3OCCO)cc2C1` (single isomer, unassigned) [Compound 1000]: the IC50 in assay [1] (Compounds 1000-1279) is under 100 nM. Also, the “% of modification” value in assay [2] (setting [4]) is given as “A (percent of modification of PIK3CA protein ≥75%)”.
As to `CC#CC(=O)N1CC(n2cc(-c3nc(-c4ccc5c(c4)CCNC5)c4ccsc4c3-c3ccc(F)cc3OC)cn2)C1` [Compound 113], the IC50 in assay [1] (Compounds 10-999) was over 3000 nM. Moreover, in assay [2] (setting [3]), the “% of modification” value is recorded as “D (percent of modification <25%)”.
Turning to `C=CC(=O)N1CCn2nc(-c3nc(-c4ccc(C(=O)N5CC(F)C(F)C5)cc4)c4ccsc4c3-c3c(F)cc(F)cc3OCCOC)cc2C1C` (stereo not drawn) [Compound 1189], in assay [1] (Compounds 1000-1279), the IC50 is under 100 nM. In assay [2] (setting [4]), the “% of modification” value is listed as “A (percent of modification of PIK3CA protein ≥75%)”.
For `C=CC(=O)N1Cc2cc(-c3nc(-c4ccc5ncc(=O)n(C)c5c4)c4ccsc4c3-c3c(F)cc(F)cc3OCCOC)nn2CC1C` (stereo not drawn) [Compound 856], the IC50 in assay [1] (Compounds 10-999) was under 100 nM. For the same compound, the “% of modification” value in assay [2] (setting [4]) is “A (percent of modification of PIK3CA protein ≥75%)”.
In the case of `C=CC(=O)N1CCn2nc(-c3nc(-c4ccc(C5(F)CN(C)C5)cc4)c4ccsc4c3-c3c(F)cc(F)cc3OCCOC)cc2C1C` (stereo not drawn) [Compound 1044], in assay [1] (Compounds 1000-1279), the IC50 is under 100 nM. Besides, the “% of modification” value in assay [2] (setting [4]) is listed as “A (percent of modification of PIK3CA protein ≥75%)”.

Usually IC50 stands for the concentration that inhibits the measured activity by half.
